System: human coronavirus OC43
Experiment: Antiviral activity: human coronavirus OC43 replication in differentiated 3T3-L1 mouse adipocyte cells, viral titers by TCID50 assay in MRC5 cells
Assay type: cell-based
Conditions: median fold reduction of virus titers vs vehicle control (DMSO); final compound concentration 10 µM; medium collected 24 hours after infection; differentiated 3T3-L1 adipocytes, 0.05 TCID50 per cell
Protocol: Activity of compounds affecting viral replication and disease was tested against coronavirus replication in differentiated 3T3-L1 mouse adipocyte cells using human coronavirus OC43 as a model virus. 3T3-L1 preadipocytes (ATCC) were routinely cultured in a growth medium composed of DMEM high-glucose (Sigma), 10% FBS (Gibco), 10 U/ml penicillin and 10 μg/ml streptomycin (P/S; Gibco) in a standard cell culture incubator at 37° C. To induce adipogenic differentiation, a confluent layer of 3T3-L1 cells were incubated with the growth medium containing 2 μM rosiglitazone, 1 μM dexamethasone, 500 μM IBMX, and 1 μg/ml insulin (Sigma). Forty-eight (48) hours later (on day 2) and on days 4 and 6, medium of the cells was replaced with fresh medium containing 1 μg/ml insulin. On days 8 and 10, the medium was refreshed with regular growth medium and addition of insulin was omitted. On day 11 or 12, the cells were infected with human coronavirus OC43 (ATCC) at a multiplicity of 0.05 TCID50 (tissue-culture infectious-dose 50) per cell in DMEM containing 2% heat-inactivated FBS and P/S. One hour after infection, medium of the cells were replaced with fresh medium containing either the indicated FABP4 modulating compounds or the vehicle in which the compounds were dissolved (DMSO). The final compound concentration was 10 µM and final concentration of DMSO was 0.1% (v/v). The cells were incubated at 35° C. during the course of infection and compound treatment. Twenty-four hours after infection, medium of the cells was collected, cleared by centrifugation at 2,000g for 5 minutes, and frozen at −80 degrees C. until further processing. The viral titers in the samples were determined by TCID50 assay in MRC5 cells (ATCC) using Reed-Munch method, and median fold reduction of virus titers in compound treated cells compared to vehicle control was calculated.

SMILES | Antiviral activity group
CCCCC1CCCc2c(n(Cc3ccccc3C)c3c(C(=O)O)cccc23)C1 (centres unmarked) [Compound 4, 7-butyl-5-[(2-methylphenyl)methyl]-5H,6H,7H,8H,9H,10H-cyclohepta[b]indole-4-carboxylic acid] | A (reduced virus titers >100-fold)
CCc1c(-c2ccccc2)c(-c2ccccc2)nn1-c1ccccc1-c1cccc(OCC(=O)O)c1 [Compound 21, 2-((2′-(5-Ethyl-3,4-diphenyl-1H-pyrazol-1-yl)-[1,1′-biphenyl]-3-yl)oxy)acetic acid, reference compound] | C (between 2- to 9-fold)
CCCCC1CCCCc2c1n(Cc1cccc(C(N)=O)c1)c1c(C(=O)O)cccc21 (centres unmarked) [Compound 14, 6-butyl-5-[(3-carbamoylphenyl)methyl]-5H,6H,7H,8H,9H,10H-cyclohepta[b]indole-4-carboxylic acid] | B (between 10- to 99-fold)
CCCCCCC1CCc2c(n(Cc3ccccc3C)c3c(C(=O)O)cccc23)C1 (centres unmarked) [Compound 10, 2-hexyl-9-[(2-methylphenyl)methyl]-2,3,4,9-tetrahydro-1H-carbazole-8-carboxylic acid] | A (reduced virus titers >100-fold)
CCCCC1CCCc2c1n(Cc1cccc(C#N)c1)c1c(C(=O)O)cccc21 (centres unmarked) [Compound 13, 1-butyl-9-[(3-cyanophenyl)methyl]-2,3,4,9-tetrahydro-1H-carbazole-8-carboxylic acid] | B (between 10- to 99-fold)
CCCCC1CCCc2c1n(Cc1cccc(C(N)=O)c1)c1c(C(=O)O)cccc21 (centres unmarked) [Compound 12, 1-butyl-9-[(3-carbamoylphenyl)methyl]-2,3,4,9-tetrahydro-1H-carbazole-8-carboxylic acid] | C (between 2- to 9-fold)
CCCCCCC1CCc2c(n(Cc3ccccc3F)c3c(C(=O)O)cccc23)C1 (centres unmarked) [Compound 11, 9-[(2-fluorophenyl)methyl]-2-hexyl-2,3,4,9-tetrahydro-1H-carbazole-8-carboxylic acid] | A (reduced virus titers >100-fold)
CCCCC1CCCc2c(n(Cc3cccc(C(N)=O)c3)c3c(C(=O)O)cccc23)C1 (centres unmarked) [Compound 1, 7-butyl-5-[(3-carbamoylphenyl)methyl]-5H,6H,7H,8H,9H,10H-cyclohepta[b]indole-4-carboxylic acid] | B (between 10- to 99-fold)
CCCCC1Cc2c(n(Cc3cccc(C#N)c3)c3c(C(=O)O)cccc23)C1 (centres unmarked) [Compound 18, 2-butyl-4-[(3-cyanophenyl)methyl]-1H,2H,3H,4H-cyclopenta[b]indole-5-carboxylic acid] | C (between 2- to 9-fold)
CCCCC1CCCc2c(n(Cc3cccc(C#N)c3)c3c(C(=O)O)cccc23)C1 (centres unmarked) [Compound 2, 7-butyl-5-[(3-cyanophenyl)methyl]-5H,6H,7H, 8H,9H,10H-cyclohepta[b]indole-4-carboxylic acid] | A (reduced virus titers >100-fold)
CCCCCCC1CCCc2c(n(Cc3cccc(C(N)=O)c3)c3c(C(=O)O)cccc23)C1 (centres unmarked) [Compound 5, 5-[(3-carbamoylphenyl)methyl]-7-hexyl-5H,6H,7H,8H,9H,10H-cyclohepta[b]indole-4-carboxylic acid] | B (between 10- to 99-fold)
CCCCCCC1CCc2c(n(Cc3cccnc3)c3c(C(=O)O)cccc23)C1 (centres unmarked) [Compound 9, 2-hexyl-9-[(pyridin-3-yl)methyl]-2,3,4,9-tetrahydro-1H-carbazole-8-carboxylic acid] | A (reduced virus titers >100-fold)
CCCCCCC1CCc2c(n(Cc3cccc(C(N)=O)c3)c3c(C(=O)O)cccc23)C1 (centres unmarked) [Compound 7, 9-[(3-carbamoylphenyl)methyl]-2-hexyl-2,3,4,9-tetrahydro-1H-carbazole-8-carboxylic acid] | B (between 10- to 99-fold)
Clc1ccc2nc(N3CCCCC3)c(-c3nnn[nH]3)c(-c3ccccc3)c2c1 [Compound 22, 6-chloro-4-phenyl-2-(piperidin-1-yl)-3-(1H-tetrazol-5-yl)quinoline, reference compound] | A (reduced virus titers >100-fold)
CCCCC1CCCCc2c1c1cccc(C(=O)O)c1n2Cc1cccc(C(N)=O)c1 (centres unmarked) [Compound 19, 10-butyl-5-[(3-carbamoylphenyl)methyl]-5H,6H,7H,8H,9H,10H-cyclohepta[b]indole-4-carboxylic acid] | C (between 2- to 9-fold)
CCCCC1CCc2c1n(Cc1cccc(C(N)=O)c1)c1c(C(=O)O)cccc21 (centres unmarked) [Compound 16, 3-butyl-4-[(3-carbamoylphenyl)methyl]-1H,2H,3H,4H-cyclopenta[b]indole-5-carboxylic acid] | C (between 2- to 9-fold)
CCCCC1CCCCc2c1n(Cc1cccc(C#N)c1)c1c(C(=O)O)cccc21 (centres unmarked) [Compound 15, 6-butyl-5-[(3-cyanophenyl)methyl]-5H,6H,7H,8H,9H,10H-cyclohepta[b]indole-4-carboxylic acid] | B (between 10- to 99-fold)
CCCCCCC1CCCc2c(n(Cc3cccc(C#N)c3)c3c(C(=O)O)cccc23)C1 (centres unmarked) [Compound 6, 5-[(3-cyanophenyl)methyl]-7-hexyl-5H,6H,7H,8H,9H,10H-cyclohepta[b]indole-4-carboxylic acid] | A (reduced virus titers >100-fold)
CCCCC1CCCc2c(n(Cc3ccc(C)cc3)c3c(C(=O)O)cccc23)C1 (centres unmarked) [Compound 3, 7-butyl-5-[(4-methylphenyl)methyl]-5H,6H,7H,8H,9H,10H-cyclohepta[b]indole-4-carboxylic acid] | B (between 10- to 99-fold)
CCCCCCC1CCc2c(n(Cc3cccc(C#N)c3)c3c(C(=O)O)cccc23)C1 (centres unmarked) [Compound 8, 9-[(3-cyanophenyl)methyl]-2-hexyl-2,3,4,9-tetrahydro-1H-carbazole-8-carboxylic acid] | B (between 10- to 99-fold)
CCCCC1CCc2c(c3cccc(C(=O)O)c3n2Cc2cccc(C(N)=O)c2)C1 (centres unmarked) [Compound 20, 3-butyl-9-[(3-carbamoylphenyl)methyl]-2,3,4,9-tetrahydro-1H-carbazole-8-carboxylic acid] | C (between 2- to 9-fold)
Cc1c(Cl)cccc1OCc1cc(=O)n2nc(-c3ccccc3)nc2[nH]1 [Compound 23, 5-((3-chloro-2-methylphenoxy)methyl)-2-phenyl-[1,2,4]triazolo[1,5-a]pyrimidin-7(4H)-one, reference compound] | B (between 10- to 99-fold)
CCCCC1Cc2c(n(Cc3cccc(C(N)=O)c3)c3c(C(=O)O)cccc23)C1 (centres unmarked) [Compound 17, 2-butyl-4-[(3-carbamoylphenyl)methyl]-1H,2H,3H,4H-cyclopenta[b]indole-5-carboxylic acid] | C (between 2- to 9-fold)

From patent publication US12138243B2, “Antiviral use of FABP4 modulating compounds” (CRESCENTA BIOSCIENCES, priority 2021, dated 2024)
